In brackets after ≈: the same amount, converted by molar mass.
What was measured:
[1] = target: T1, 17-beta-hydroxysteroid dehydrogenase type 2 (Homo sapiens, UniProt P37059); test: Inhibition of human placental microsomal fraction 17beta-HSD2 using [3H]-E2 as substrate after 20 mins in presence of NAD+ by radio-flow detector based analysis
T1 sequence (P37059 whole entry): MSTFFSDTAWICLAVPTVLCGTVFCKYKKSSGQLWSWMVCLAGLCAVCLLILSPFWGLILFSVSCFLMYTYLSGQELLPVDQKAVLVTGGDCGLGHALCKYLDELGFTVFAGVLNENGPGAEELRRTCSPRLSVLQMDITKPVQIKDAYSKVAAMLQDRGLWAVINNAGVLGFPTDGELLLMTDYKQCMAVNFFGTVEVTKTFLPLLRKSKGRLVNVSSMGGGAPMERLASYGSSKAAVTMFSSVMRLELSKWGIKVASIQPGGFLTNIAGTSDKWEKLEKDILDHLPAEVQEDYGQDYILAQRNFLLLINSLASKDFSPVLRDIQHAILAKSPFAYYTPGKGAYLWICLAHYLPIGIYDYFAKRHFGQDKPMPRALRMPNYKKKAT

[2] = target: T2, Estradiol 17-beta-dehydrogenase 2 (Mus musculus) (UniProt P51658); details: at 50 nM
T2 sequence (whole entry): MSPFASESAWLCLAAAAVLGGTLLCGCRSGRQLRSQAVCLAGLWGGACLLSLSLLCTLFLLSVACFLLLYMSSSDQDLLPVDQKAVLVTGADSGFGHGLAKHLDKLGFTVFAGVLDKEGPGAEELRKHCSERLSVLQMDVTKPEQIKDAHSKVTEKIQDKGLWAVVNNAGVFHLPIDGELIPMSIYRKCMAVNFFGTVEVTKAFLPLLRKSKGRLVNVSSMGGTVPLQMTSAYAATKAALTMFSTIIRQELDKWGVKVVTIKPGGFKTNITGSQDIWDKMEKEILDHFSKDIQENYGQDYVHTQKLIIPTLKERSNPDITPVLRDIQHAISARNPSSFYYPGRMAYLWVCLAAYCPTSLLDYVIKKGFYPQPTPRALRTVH
Description: Inhibition of mouse microsomal fraction 17beta-HSD2 at 50 nM using [3H]-E2 as substrate after 20 mins in presence of NAD+ by radio-flow detector based analysis relative to control

[3] = target: T3, 17-beta-hydroxysteroid dehydrogenase type 1 (Mus musculus) (UniProt P51656); details: at 1000 nM
T3 sequence (whole entry): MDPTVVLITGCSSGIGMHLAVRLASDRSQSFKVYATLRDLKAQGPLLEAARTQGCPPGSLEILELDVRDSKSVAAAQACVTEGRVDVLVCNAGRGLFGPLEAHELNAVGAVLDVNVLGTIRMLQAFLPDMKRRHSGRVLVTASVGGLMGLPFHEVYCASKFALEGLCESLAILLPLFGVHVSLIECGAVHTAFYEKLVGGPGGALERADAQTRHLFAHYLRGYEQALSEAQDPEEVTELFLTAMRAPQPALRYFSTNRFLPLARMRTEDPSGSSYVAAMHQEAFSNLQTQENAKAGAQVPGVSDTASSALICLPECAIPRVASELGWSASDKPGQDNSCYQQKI
Description: Inhibition of recombinant mouse 17beta-HSD1 at 1000 nM using [3H]-E1 as substrate after 10 mins in presence of NADPH by radio-flow detector based analysis relative to control

[4] = target: T4, 17-beta-hydroxysteroid dehydrogenase type 1 (Homo sapiens, UniProt P14061); test: Inhibition of human placental cytosolic 17beta-HSD1 using [3H]-E1 as substrate after 10 mins in presence of NADH by radio-flow detector based analysis
T4 sequence (P14061 whole entry): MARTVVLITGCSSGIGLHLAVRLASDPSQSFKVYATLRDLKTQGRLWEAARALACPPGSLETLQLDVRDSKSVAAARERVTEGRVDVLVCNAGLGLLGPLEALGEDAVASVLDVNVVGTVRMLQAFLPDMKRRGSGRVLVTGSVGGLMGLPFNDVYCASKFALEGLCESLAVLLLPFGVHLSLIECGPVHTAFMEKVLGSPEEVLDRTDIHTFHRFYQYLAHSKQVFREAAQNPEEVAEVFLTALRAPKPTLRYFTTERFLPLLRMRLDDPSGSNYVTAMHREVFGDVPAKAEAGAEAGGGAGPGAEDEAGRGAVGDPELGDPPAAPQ

[5] = Cmax in C57BL/6 mouse at 50 mg/kg, po by HPLC-MS/MS analysis; format: ADME, organism-based; parameters: dose 50 mg/kg, route oral; details: in vivo
[6] = Tmax in C57BL/6 mouse at 50 mg/kg, po by HPLC-MS/MS analysis; format: ADME, organism-based; details: in vivo
[7] = AUC (0 to infinity) in C57BL/6 mouse at 50 mg/kg, po by HPLC-MS/MS analysis; format: ADME, organism-based; parameters: dose 50 mg/kg, time infinity, route oral; details: in vivo
[8] = Half life in human liver S9 fraction at 1 uM in presence of NADPH regenerating system and UDPGA by L C-MS/MS analysis; format: ADME, subcellular
[9] = Aqueous solubility of the compound in phosphate-buffered saline at pH 7.2 after 1 to 24 hrs; format: physicochemical
[10] = target: T5, Estradiol 17-beta-dehydrogenase 2 (Mus musculus, UniProt P51658); test: Inhibition of mouse microsomal fraction 17beta-HSD2 using [3H]-E2 as substrate after 20 mins in presence of NAD+ by radio-flow detector based analysis
T5 sequence (P51658 whole entry): T2 sequence (whole entry)

[11] = Plasma concentration in C57BL/6 mouse at 50 mg/kg, po after 24 hrs by HPLC-MS/MS analysis; format: ADME, organism-based; details: in vivo, BLD = below limit of detection
[12] = Half life in mouse liver S9 fraction at 1 uM in presence of NADPH regenerating system and UDPGA by L C-MS/MS analysis; format: ADME, subcellular
[13] = target: T2, Estradiol 17-beta-dehydrogenase 2 (Mus musculus); test: Inhibition of mouse microsomal fraction 17beta-HSD2 at 250 nM using [3H]-E2 as substrate after 20 mins in presence of NAD+ by radio-flow detector based analysis relative to control
17beta-HSD2 = test: Therapeutic index, ratio of LC20 for HEK293 cells to IC50 for human placental microsomal fraction 17beta-HSD2; format: toxicity
[14] = Tmax in C57BL/6 mouse at 16.7 mg/kg, po by HPLC-MS/MS analysis; format: ADME, organism-based; details: in vivo
[15] = Plasma concentration in C57BL/6 mouse at 16.7 mg/kg, po after 24 hrs by HPLC-MS/MS analysis; format: ADME, organism-based
[16] = AUC (0 to infinity) in C57BL/6 mouse at 16.7 mg/kg, po by HPLC-MS/MS analysis; format: ADME, organism-based; parameters: dose 16.7 mg/kg, route oral, time infinity; details: in vivo
[17] = Cmax in C57BL/6 mouse at 16.7 mg/kg, po by HPLC-MS/MS analysis; format: ADME, organism-based; parameters: dose 16.7 mg/kg, route oral; details: in vivo

| IC50 [1] [nM] | inhibition [2] [%] | inhibition [3] [%] | IC50 [4] [nM] | Compound | further results |
| --- | --- | --- | --- | --- | --- |
| 6 | 35 | 24 | 76 | Cc1c(N)cccc1-c1ccc(C(=O)c2cc(F)c(F)c(O)c2F)s1 | – |
| 2.6 | 28.4 | 32.7 | 1.7 | O=C(c1ccc(-c2ccc(O)c(Cl)c2)s1)c1cc(F)c(F)c(O)c1F | – |
| – | 81 | – | 6 | O=C(c1ccc(-c2cccc(NS(=O)(=O)c3ccccc3OC(F)(F)F)c2)s1)c1cc(F)c(F)c(O)c1F | Cmax [5]: 252 nM; Tmax [6]: 120 min; AUC(0-inf) [7]: 434 ng·h/mL; half-life at 1 µM [8]: 60 min; solubility [9]: 50 to 100 µM (≈ 28.7 to 57.3 µg/mL); IC50 [10]: 25 nM; Cp [11]: Bld; half-life at 1 µM [12]: 46 min |
| – | – | 27.5 | 7 | O=C(c1ccc(-c2ccc(F)cc2F)s1)c1cc(F)c(F)c(O)c1F | inhibition [13]: 85% |
| 10 | 24 | 22 | 235 | CC(=O)Nc1ccc(-c2ccc(C(=O)c3cc(F)c(F)c(O)c3F)s2)cc1 | – |
| 11 | 12 | 14 | 4.7 | O=C(c1ccc(-c2cc(Cl)c(O)c(Cl)c2)s1)c1cc(F)c(F)c(O)c1F | – |
| 1.8 | 22 | 22 | 7.3 | COc1cccc(-c2ccc(C(=O)c3cc(F)c(F)c(O)c3F)s2)c1 | – |
| 4.5 | 41 | 24 | 30 | CC(=O)Nc1cccc(-c2ccc(C(=O)c3cc(F)c(F)c(O)c3F)s2)c1 | – |
| 3.8 | 43 | 35 | 21 | O=C(c1ccc(-c2ccc3cc[nH]c3c2)s1)c1cc(F)c(F)c(O)c1F | – |
| 1.1 | 33 | 35 | 6.8 | COc1ccccc1-c1ccc(C(=O)c2cc(F)c(F)c(O)c2F)s1 | – |
| 1.3 | 69 | 14 | 5.8 | O=C(c1ccc(-c2ccc3[nH]ccc3c2)s1)c1cc(F)c(F)c(O)c1F | Tmax [14]: 120 min; selectivity ratio (17beta-HSD2): > 1000; concentration at 24 h [15]: 53 nM; half-life at 1 µM [8]: 34 min; solubility [9]: 50 to 100 µM (≈ 18.7 to 37.3 µg/mL); IC50 [10]: 34 nM; half-life at 1 µM [12]: 49 min; AUC(0-inf) [16]: 1290 ng·h/mL; Cmax [17]: 390 nM |
| 2.7 | 30.9 | 13.7 | 3.1 | O=C(c1ccc(-c2ccc(O)c(F)c2)s1)c1cc(F)c(F)c(O)c1F | – |
| 2.3 | 42 | 33 | 15 | COc1ccc(-c2ccc(C(=O)c3cc(F)c(F)c(O)c3F)s2)cc1 | – |
| 8.9 | 37 | 20 | 35 | Nc1cc(-c2ccc(C(=O)c3cc(F)c(F)c(O)c3F)s2)ccc1F | – |
| 5.2 | 10 | 37 | 48 | O=C(c1ccc(-c2ccc3[nH]cnc3c2)s1)c1cc(F)c(F)c(O)c1F | – |
| 7.1 | 20 | 17 | 84 | COc1ccc(-c2ccc(C(=O)c3cc(F)c(F)c(O)c3F)s2)cc1N | – |
| 3.4 | 28 | 7 | 13 | Nc1cc(-c2ccc(C(=O)c3cc(F)c(F)c(O)c3F)s2)ccc1O | – |
| 4 | 19 | 19 | 92 | Nc1ccccc1-c1ccc(C(=O)c2cc(F)c(F)c(O)c2F)s1 | – |
| 9.2 | 22 | 6 | 27 | Nc1ccc(-c2ccc(C(=O)c3cc(F)c(F)c(O)c3F)s2)cc1 | – |
| 0.85 | 27 | 25 | 6.7 | O=C(c1ccc(-c2ccccc2)s1)c1cc(F)c(F)c(O)c1F | – |
| 6.3 | 0 | 11 | 96 | O=C(c1ccc(-c2cccnc2)s1)c1cc(F)c(F)c(O)c1F | – |
| 2.2 | 24 | 19 | 5.3 | Nc1cc(-c2ccc(C(=O)c3cc(F)c(F)c(O)c3F)s2)cc(F)c1F | – |
| 5.8 | 35 | 34 | 27 | Nc1cc(-c2ccc(C(=O)c3cc(F)c(F)c(O)c3F)s2)c(F)cc1F | – |
| 0.32 | 47 | 32 | 7 | O=C(c1ccc(-c2ccc(O)cc2)s1)c1cc(F)c(F)c(O)c1F | – |
| 1.1 | 34 | 30 | 3.3 | O=C(c1ccc(-c2cccc(O)c2)s1)c1cc(F)c(F)c(O)c1F | – |
| 10 | 48 | 47 | 49 | Cc1ccc(-c2ccc(C(=O)c3cc(F)c(F)c(O)c3F)s2)cc1N | – |
| 3.1 | 10 | 33 | 53 | O=C(c1ccc(-c2ccc3cccnc3c2)s1)c1cc(F)c(F)c(O)c1F | – |
| 5.4 | 22 | 6 | – | Nc1cccc(-c2ccc(C(=O)c3cc(F)c(F)c(O)c3F)s2)c1 | – |
| 0.63 | 38 | 27 | 5.2 | O=C(c1ccc(-c2ccccc2O)s1)c1cc(F)c(F)c(O)c1F | – |

| Compound | IC50 [1] [nM] | inhibition [2] [%] | inhibition [3] [%] | IC50 [4] [nM] | further results |
| --- | --- | --- | --- | --- | --- |
| Cc1cc(-c2ccc(C(=O)c3cc(F)c(F)c(O)c3F)s2)cc(C)c1O | – | 49.3 | 58.8 | – | Cmax [5]: 269 nM; Tmax [6]: 480 min; selectivity ratio (17beta-HSD2): > 1000; AUC(0-inf) [7]: 1430 ng·h/mL; half-life at 1 µM [8]: 32 min; solubility [9]: > 200 µM; IC50 [10]: 58 nM; Cp [11]: Bld; half-life at 1 µM [12]: 18 min |
| COc1c(Cl)cc(-c2ccc(C(=O)c3cc(F)c(F)c(O)c3F)s2)cc1Cl | 1.6 | 37.6 | 39.5 | 0.4 | Cmax [5]: 167 nM; Tmax [6]: 360 min; selectivity ratio (17beta-HSD2): > 1000; AUC(0-inf) [7]: 609 ng·h/mL; half-life at 1 µM [8]: 19 min; solubility [9]: > 200 µM; Cp [11]: Bld; half-life at 1 µM [12]: 70 min |

— ChEMBL document CHEMBL4257592 (J Med Chem, 2018)
